Measurements as given in PubChem BioAssay (NCI).
Where “and” joins values, the source holds several entries; their conditions need not be identical. Equal entries are not always repeated.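 How tested: cells in 96-well plates exposed to compound for 48 hours at five concentrations. GI50 = concentration required for 50% inhibition of growth. At the TGI there is no net growth.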

Assays:
Assay in all cases: DTP human tumour cell line panel, 48 h
M14 melanoma = system: M14 melanoma
K-562 leukemia = system: K-562 leukemia
MALME-3M melanoma = system: MALME-3M melanoma
NCI-H522 lung = system: NCI-H522 lung
NCI/ADR-RES ovarian = system: NCI/ADR-RES ovarian
NCI-H460 lung = system: NCI-H460 lung
DU-145 prostate = system: DU-145 prostate
SF-295 CNS = system: SF-295 CNS
UO-31 renal = system: UO-31 renal
HCT-15 colon = system: HCT-15 colon

| Compound | GI50 (M14 melanoma) | TGI (M14 melanoma) | GI50 (K-562 leukemia) | TGI (K-562 leukemia) | GI50 (MALME-3M melanoma) | TGI (MALME-3M melanoma) | GI50 (NCI-H522 lung) | TGI (NCI-H522 lung) | GI50 (NCI/ADR-RES ovarian) | TGI (NCI/ADR-RES ovarian) | GI50 (NCI-H460 lung) | TGI (NCI-H460 lung) | GI50 (DU-145 prostate) | TGI (DU-145 prostate) | GI50 (SF-295 CNS) | TGI (SF-295 CNS) | GI50 (UO-31 renal) | TGI (UO-31 renal) | GI50 (HCT-15 colon) | TGI (HCT-15 colon) |
| --- | --- | --- | --- | --- | --- | --- | --- | --- | --- | --- | --- | --- | --- | --- | --- | --- | --- | --- | --- | --- |
| CN(CCOc1ccc(C#N)cc1)CCOc1ccc(C#N)cc1 | 78.9 µM | > 100 µM | 16.7 µM | > 100 µM | > 100 µM | > 100 µM | 4.98 µM | > 100 µM | 43.8 µM | > 100 µM | > 100 µM | > 100 µM | 90 µM | > 100 µM | 17.3 µM | > 100 µM | 18.7 µM | > 100 µM | 25.4 µM | > 100 µM |
| Nc1nc2c(c(=O)[nH]1)CN(c1ccc(S(N)(=O)=O)cc1)CN2 |  | > 100 µM |  | > 100 µM |  | > 100 µM |  | > 100 µM |  | > 100 µM |  | > 100 µM |  | > 100 µM |  | > 100 µM |  | > 100 µM |  | > 100 µM |
| CC1C(=O)C(C)C(c2ccccc2)N(N=O)C1c1ccccc1 (centres undefined) |  | > 581 µM |  | > 1000 µM |  | > 516 µM | > 385 µM | > 601 µM |  | 867 µM |  | > 1000 µM |  | 567 µM | 181 µM | 498 µM | 268 µM | > 829 µM | > 1000 µM | > 1000 µM |
| CCCCn1cnc2c(SC)ncnc21 |  | > 100 µM |  | > 100 µM |  | > 100 µM |  | > 100 µM |  | > 100 µM |  | > 100 µM |  | > 100 µM |  | > 100 µM |  | > 100 µM |  | > 100 µM |
| OCc1ccc(-c2nn(Cc3ccccc3)c3ccccc23)o1 | 21.1 µM and 29.2 µM | 45.6 µM and > 57.8 µM | 10.1 µM and 7.41 µM | 63.2 µM and > 42.3 µM | 24.3 µM and 21.1 µM | 76.3 µM and 55.5 µM | 12 µM and 20.6 µM | 28.2 µM and > 58.7 µM | 19.2 µM and 11.5 µM | 67.1 µM and 49.6 µM | 12.8 µM and 12.2 µM | 29.4 µM and 28.5 µM | 16.6 µM and 17.8 µM | 36.9 µM and 43.8 µM | 13.4 µM and 18.5 µM | 33.7 µM and 46 µM | 13.7 µM and 23.8 µM | 57.4 µM and > 84.7 µM | 17.4 µM and 20.1 µM | 49.2 µM and 41.4 µM |
| COc1cc[nH]c1/C=C1\C(=O)Nc2ccc(F)c(I)c21 | > 25 µM | > 25 µM | > 25 µM | > 25 µM | > 25 µM | > 25 µM | > 25 µM | > 25 µM | > 25 µM | > 25 µM | > 25 µM | > 25 µM | > 25 µM | > 25 µM | > 25 µM | > 25 µM | > 25 µM | > 25 µM | > 25 µM | > 25 µM |
| Clc1nc(Cl)c2c(ncn2C/C=C\Cn2cnc3c(Cl)nc(Cl)nc32)n1 | 2.79 µM | 6.92 µM | 0.801 µM | 21.1 µM | 2.22 µM | 4.2 µM | 0.697 µM | 2.1 µM | 2.69 µM | 11.1 µM | 2.34 µM | 5.65 µM | 1.53 µM | 2.86 µM | 8.99 µM | 21.1 µM | 2.08 µM | 4.35 µM | 1.5 µM | 3.2 µM |
| Cn1ccnc1C(=O)/C=C/c1ccc(CC(=O)Nc2ccccc2)cc1 | 4.55 µM | 10.8 µM | 1.07 µM | > 25 µM | 5.93 µM | 22 µM | 3.2 µM | 6.45 µM | 7.54 µM | > 25 µM | 2.32 µM | 9.52 µM | 1.1 µM | 4.03 µM | 5.44 µM | 16.5 µM | 2.77 µM | 5.86 µM | 1.25 µM | 8.77 µM |
| Nc1cc(N)c(N)cc1N | 1.87 µM | 3.37 µM | 2.92 µM | > 100 µM | 1.79 µM | 3.45 µM | 1.48 µM | 2.9 µM | 2.24 µM | 7.1 µM | 10.8 µM | 26.2 µM | 1.75 µM | 3.18 µM | 1.7 µM | 3.31 µM | 1.56 µM | 4.6 µM | 2.01 µM | 4.68 µM |
| Fc1cccc(COc2ccc(Nc3ncnc4cc(-c5ccc[nH]5)sc34)cc2Cl)c1 | 8.32 µM | > 23.4 µM | 10.7 µM | > 25 µM | 2.65 µM | 14.6 µM | 1.48 µM | > 7.14 µM | 3.29 µM | > 25 µM | 2.09 µM | > 15.3 µM | 3.34 µM | > 16.4 µM | 0.548 µM | > 19.9 µM | 0.245 µM | 2.52 µM | 0.264 µM | > 13 µM |
| COc1ccc(-c2cn(-c3ccccc3)c(-c3ccccc3)n2)cc1OC | 5.69 µM | 20 µM | 3.21 µM | > 100 µM | 9.17 µM | 22.7 µM | 6.63 µM | 19.6 µM | 4.01 µM | 30.2 µM | 3.57 µM | 14.9 µM | 2.9 µM | 7.92 µM | 3.5 µM | 17.1 µM | 2.7 µM | 14.4 µM | 2.62 µM | 11.2 µM |
| CC(C)(C)c1ccc(S(=O)(=O)N[C@H]2CC[C@H]3[C@@H]4CCc5cc(OS(=O)(=O)O)ccc5[C@H]4CC[C@]23C)cc1 | 2.07 µM | 4.31 µM | 3.22 µM | 13.6 µM | 2.49 µM | 6.05 µM | 1.93 µM | 5.15 µM | 2.39 µM | 7.03 µM | 2.19 µM | 4.79 µM | 5.72 µM | 18 µM | 2.51 µM | 6.76 µM | 1.8 µM | 4.4 µM | 1.79 µM | 3.59 µM |
| O=C(CCl)N1c2ccccc2Sc2c1ccc1ccccc21 | 1.68 µM | 3.53 µM | 2.98 µM | 13 µM | 2.75 µM | 7 µM | 1.76 µM | 3.46 µM | 2.74 µM | 6.55 µM | 2.11 µM | 4.34 µM | 3.32 µM | 10.8 µM | 2.38 µM | 6.53 µM | 1.71 µM | 3.8 µM | 1.92 µM | 4.83 µM |
